This note sets out measurements from patent US20220354826A1, “PLEUROMUTILIN (E)-4-(1-IMIDAZOYLMETHYL )CINNAMIC ACID ESTER WITH ANTI-DRUG RESISTANT BACTERIA ACTIVITY AND A METHOD OF PREPARING THE SAME” (SHAANXI UNIVERSITY OF SCIENCE AND TECHNOLOGY, priority 2021, published 2022).

Holding throughout (format): cell-based
Experiment [1] concerns multi-resistant Staphylococcus aureus 575 (MRSA-575). Kind of experiment: Paper diffusion method drug sensitivity test, MRSA-575. To be noted: for inhibitory effect (in words): multi-drug resistant Staphylococcus aureus 575, paper diffusion; for Zone of inhibition: strain MRSA-575, drug sensitive paper 30 μg/tablet, 6.35 mm, LB plate, 37° C., 24 h, ≥17 mm sensitive, 15-16 mm intermediary, ≤14 mm resistance. Here is the method: (§1) The antimicrobial efficacy was determined by a paper diffusion method drug sensitivity test.
(§2) Experimental strains: multi-resistant Staphylococcus aureus 171, multi-resistant Staphylococcus aureus 222, multi-resistant Staphylococcus aureus 575. The experimental strains were identified by Huashan Hospital Affiliated to Fudan University (Institute of Antibiotic of Fudan University).
(§3) Drug sensitive paper: The drug sensitive paper is a special drug sensitive paper with a diameter of 6.35 mm and a water absorption of 0.02 mL. The control drug was vancomycin (30 μg/tablet); the test drugs were pleuromutilin (E)-4-(1-imidazoyl-methyl)cinnamic acid ester (30 μg/tablet).
(§4) The experimental strains were inoculated in non-selective medium and placed in air at 37° C. for 24 h. Pick a single colony that grows well and inoculate it into broth medium, incubate at 35° C.±2° C. for 6 hours, and use LA broth medium to calibrate the concentration of the bacterial solution to 0.5 Mie turbidimetric tube ([…]). A bacterial suspension is obtained.
(§5) LB dry powder was weighed, sterilized at 103.4 Kpa, 121.3° C. high-pressure steam for 15 min, and then placed it in a 40° C.-50° C. water bath. A sterile empty plate (inner diameter 9 cm) was placed on the surface of the ultra-clean table water table, and […] to the plate. The thickness of each plate was 3 mm to 4 mm. After the plate was cooled at room temperature, it was stored in the refrigerator at 2° C.-8° C. A sterile cotton swab was used to dip the bacterial solution and to evenly coat the surface of the LB plate 3 times. After inoculation of the bacterial suspension, the LB plate was dried at room temperature for 3 min to 5 min. Sterile forceps were used to closely attach the antibacterial drug paper to the dish. The dish was put upside down and placed in a 37° C. incubator for 24 h. The results were observed by measuring the diameter. Taking 0.5% DMSO solution as a negative control, the antibacterial activity is expressed by the diameter of the inhibition zone. The inhibition zone ≥17 mm, sensitive; the inhibition zone of 15 mm-16 mm, intermediary; the inhibition zone ≤14 mm, drug resistance.

Experiment [2] has as its system multi-resistant Staphylococcus aureus 171 (MRSA-171). Put plainly: Paper diffusion method drug sensitivity test, MRSA-171. To be noted: for inhibitory effect (in words): multi-drug resistant Staphylococcus aureus 171, paper diffusion; for Zone of inhibition: strain MRSA-171, drug sensitive paper 30 μg/tablet, 6.35 mm, LB plate, 37° C., 24 h, ≥17 mm sensitive, 15-16 mm intermediary, ≤14 mm resistance. Here is the method: as §1, §2, §3, §4, §5

The subject of experiment [3] is multi-resistant Staphylococcus aureus 222 (MRSA-222). Put plainly: Paper diffusion method drug sensitivity test, MRSA-222. The following applies: for inhibitory effect (in words): multi-drug resistant Staphylococcus aureus 222, paper diffusion; for Zone of inhibition: strain MRSA-222, drug sensitive paper 30 μg/tablet, 6.35 mm, LB plate, 37° C., 24 h, ≥17 mm sensitive, 15-16 mm intermediary, ≤14 mm resistance. Here is the method:
as §1, §2, §3, §4, §5

In the case of `C=C[C@]1(C)C[C@@H](OC(=O)COC(=O)/C=C/c2ccc(Cn3ccnc3)cc2)[C@]2(C)[C@H](C)CC[C@]3(CCC(=O)[C@H]32)[C@@H](C)[C@@H]1O`, the “inhibitory effect (in words)” value in experiment [1], in experiment [2] and in experiment [3] was “strong inhibitory effects” each time. The values for the Zone of inhibition in experiment [1], in experiment [2] and in experiment [3] were 15 mm, 16 mm and 17 mm, respectively.

With `O=C(O)/C=C/c1ccc(Cn2ccnc2)cc1` [(E)-4-(1-imidazoylmethyl)cinnamic acid], the “inhibitory effect (in words)” value in experiment [1], in experiment [2] and in experiment [3] was “no inhibitory effect” throughout. The Zone of inhibition in experiment [1], in experiment [2] and in experiment [3] was 0 mm in each case.

As for `C=C[C@]1(C)C[C@@H](OC(=O)CO)[C@]2(C)[C@H](C)CC[C@]3(CCC(=O)[C@H]32)[C@@H](C)[C@@H]1O` [Pleuromutilin], the “inhibitory effect (in words)” value in experiment [1], in experiment [2] and in experiment [3] was “no inhibitory effect” each time. Moreover, the Zone of inhibition in experiment [1], in experiment [2] and in experiment [3] was 0 mm throughout.

With `CN[C@H](CC(C)C)C(=O)N[C@H]1C(=O)N[C@@H](CC(N)=O)C(=O)N[C@H]2C(=O)N[C@H]3C(=O)N[C@H](C(=O)N[C@H](C(=O)O)c4cc(O)cc(O)c4-c4cc3ccc4O)[C@H](O)c3ccc(c(Cl)c3)Oc3cc2cc(c3O[C@@H]2O[C@H](CO)[C@@H](O)[C@H](O)[C@H]2O[C@H]2C[C@](C)(N)[C@H](O)[C@H](C)O2)Oc2ccc(cc2Cl)[C@H]1O` [Vancomycin, vancomycin], the values for the Zone of inhibition in experiment [1], in experiment [2] and in experiment [3] were 21 mm, 17 mm and 18 mm, respectively.
